# Measured values: patent US20110306606A1, “NOVEL 2,6-SUBSTITUTED-3-NITROPYRIDINE DERIVATIVE, METHOD FOR PREPARING SAME, AND PHARMACEUTICAL COMPOSITION INCLUDING SAME” (priority 2008, published 2011)
# Where “and” joins values, the source holds several entries; their conditions need not be identical. Equal values may be shown once. Read-outs that look alike come from different tables or passages of the source.
# Experiments:
# [1] = tested on: formation of osteoclasts in co-culture of bone marrow cells and osteoblasts; experiment: Osteoclastogenesis inhibition via co-culture system (TRAP staining); type: cell-based, mice; conditions: 1 μM compound, 7 days co-culture, TRAP-positive multinucleated osteoclasts vs vehicle control; for inhibition at 1 µM: Mus musculus, Osteoclast, 168 h
# Method: Osteoclastogenesis inhibitory effects of the compounds of the present invention were evaluated via a co-culture system (Reference: Endocrinology 137(1996), 2187 to 2190, E. Jimi et al.). A specific experimental method is as follows.
# 1) Preparation of Bone Marrow Cells and Osteoblasts
# Femora and tibia were aseptically dissected from 6 to 8-week-old male ddY mice to harvest bone marrow cells by a conventional method using a syringe. In brief, tissues were removed from the dissected bone, the bone ends were cut off with scissors, and the bone marrow was isolated by pushing a medium-containing syringe (23G) against the one end of the cut bone. The isolated bone marrow was subjected to repeated piston movement of a syringe such that single cells were obtained (Reference: Endocrinology 123(1988), 2600 to 2602, Takahashi et al.). After removal of red blood cells within the bone marrow, the bone marrow cells recovered by centrifugation were placed in an α-MEM supplemented with 10% fetal bovine serum (FBS), followed by counting of nucleated cells and then were immediately used for a co-culture system.
# 2) Osteoclastogenesis Inhibition Experiment Via Co-Culture System
# As the medium used for a co-culture system, a differentiation medium with the addition of differentiation factors 1α,25-dihydroxyvitamin D3 (10^−8M) and dexamethasone (10^−8M) to a-MEM supplemented with 10% FBS was used for the induction of osteoclastogenesis. First, the compounds dissolved in dimethyl sulfoxide (DMSO) at a concentration of 1 mM were diluted to 2 μM using the above-mentioned differentiation medium. As a vehicle control group, 0.2% (v/v) DMSO was added to the medium. 100 μL/well of each medium was added to 96-well plates. In addition, the above prepared bone marrow cells and osteoblasts were plated onto 96-well plates at a density of 1×10^5 cells/50 μL/well and 3×10^3 cells/50 μL/well, respectively. The total volume/well was 200 μL and the final compound concentration was 1 μM. The control group was 0.1% DMSO. The cells were cultured with exchange of the culture media with fresh media containing differentiation factors and test materials at an interval of 2 to 3 days.
# 7 days after culturing of cells, the formation of multinucleated osteoclasts was confirmed by microscopic examination, the medium was removed from the wells and then the cells were fixed in a 10% phosphate-buffered formalin solution. The degree of formation of mature osteoclasts was measured taking advantage of the characteristics of osteoclasts showing a positive reaction to a tartrate-resistant acid phosphatase (TRAP) staining solution. The TRAP staining solution was prepared in a manner such that naphthol AS-MS phosphate as a substrate and a coloring agent (Fast Red Violet LB salt) were dissolved in N,N-dimethylformamide, and a 0.1N NaHCO3 buffer solution containing 50 mM of tartaric acid was added thereto. Among the TRAP-positive cells under a light microscope, multinucleated osteoclasts having 6 to 7 nuclei were regarded as mature osteoclasts.
# The degree of inhibition of osteoclastogenesis was calculated according to the following equation 1. The results are summarized in Table 27 below (Experiments were carried out for 4 wells/experimental group (n=4), and the results are given in terms of mean±standard deviation)
# Inhibition of osteoclastogenesis(%)=(1−numbers of osteoclasts observed in experimental group/numbers of osteoclasts observed in vehicle control group)×100(%) [Equation 1]
# [2] = tested on: Osteoblasts (Calvarial cells); experiment: Alkaline phosphatase (ALP) activity in osteoblasts (Calvarial cells); type: cell-based, mice; conditions: 1 μM compound, 3 days
# Method: Differentiation and activity of osteoblasts were indirectly evaluated by measuring an ALP activity having a close relationship with osteogenesis.
# Osteoblasts (Calvarial cells) prepared in Experimental Example 1 and MC3T3-E1 cells (available from RIKEN Cell Bank, Japan) were collected in α-MEM supplemented with 10% FBS, followed by cell counting. The cells were dispensed into 24-well cultureware at a density of 2×10^4 cells/well. After culturing of the cells for 24 hours, the culture media were discarded and replaced with fresh media in which test compounds were diluted to a concentration of 1 μM (1 mL/well). In addition, the vehicle control group containing 0.1% DMSO was also treated. […] When the experiment was terminated, the supernatant was removed and the cells were washed three times with cold phosphate buffer at 4°. 0.2% Triton X-100 was added to the washed cells which were then subjected to three cycles of freezing at −70° and thawing at room temperature for the complete lysis of cells. The cell extracts were pooled and centrifuged to collect the cell supernatant which was used for the measurement of ALP activity and proteins. The protein concentration was measured using a BCA assay kit (manufactured by Sigma-Aldrich). For the measurement of ALP activity, p-nitrophenylphosphate was added to the cell supernatant which was then incubated at 37° for 30 minutes, and the reaction was terminated with the addition of 50 μL of 0.2N sodium hydroxide. The standard curve was plotted at the absorbance of 405 nm using p-nitrophenol as a standard material and then the absorbance of test materials thus reacted was measured to determine the production amount of p-nitrophenol.
# The ALP activity was calculated by dividing the amount of p-nitrophenol produced from each test material by the protein amount and the reaction time. Therefore, the unit of ALP activity was given in terms of p-nitrophenol/μg protein/min. The results are given in Tables 28-1 and 28-2 where the ALP activity unit of each test material was given in terms of % change through the comparison between the individual test materials and the vehicle control group.
# [3] = tested on: Osteoblasts (Calvarial cells); experiment: Cytotoxicity test (MTT); conditions: 1 μM compound, 72 hours, in comparison with vehicle control
# [4] = tested on: Osteoblasts (Calvarial cells); conditions: ICR, mouse, 72 h, 1 μM
compound,measurement,setting,value
"CCN(CCO)c1ccc([N+](=O)[O-])c(Nc2ccc(-c3csc(C)n3)cc2)n1 [Compound 141, 2-[4-(2-methylthiazol-4-yl)phenylamino]-6-[(N-ethyl-2-hydroxy)ethylamino]-3-nitropyridine]",Osteoclastogenesis inhibition (%) 1 μM,[1],82%
same,"ALP activity (1 μM, % of Control) Calvarial cell",[2],129 % of Control
same,Cell viability (%) Calvarial cell,[3],102%
"Cc1nc(-c2ccc(Nc3nc(N4CCC(N)CC4)ccc3[N+](=O)[O-])cc2)cs1 [Compound 144, 2-[4-(2-methylthiazol-4-yl)phenylamino]-6-(4-aminopiperidino)-3-nitropyridine]",inhibition at 1 µM,[1],100%
same,Cell viability (%) Calvarial cell,[4],35%
"CNc1ccc([N+](=O)[O-])c(Nc2ccc(-c3csc(C4CCCCC4)n3)cc2)n1 [Compound 151, 2-[4-(2-cyclohexylthiazol-4-yl)phenylamino]-6-(methylamino)-3-nitropyridine]",inhibition at 1 µM,[1],70%
same,Cell viability (%) Calvarial cell,[4],101%
"CC(C)Nc1ccc([N+](=O)[O-])c(Nc2ccc(-c3csc(C4CCCCC4)n3)cc2)n1 [Compound 152, 2-[4-(2-cyclohexylthiazol-4-yl)phenylamino]-6-(isopropylamino)-3-nitropyridine]",inhibition at 1 µM,[1],85%
same,Cell viability (%) Calvarial cell,[4],105%
"CC(C)CNc1ccc([N+](=O)[O-])c(Nc2ccc(-c3csc(C4CCCCC4)n3)cc2)n1 [Compound 153, 2-[4-(2-cyclohexylthiazol-4-yl)phenylamino]-6-(isobutylamino)-3-nitropyridine]",inhibition at 1 µM,[1],78%
same,Cell viability (%) Calvarial cell,[4],107%
"CC(C)(C)Nc1ccc([N+](=O)[O-])c(Nc2ccc(-c3csc(C4CCCCC4)n3)cc2)n1 [Compound 154, 2-[4-(2-cyclohexylthiazol-4-yl)phenylamino]-6-(t-butylamino)-3-nitropyridine]",inhibition at 1 µM,[1],78%
same,Cell viability (%) Calvarial cell,[4],116%
"O=[N+]([O-])c1ccc(NCc2ccncc2)nc1Nc1ccc(-c2csc(C3CCCCC3)n2)cc1 [Compound 163, 2-[4-(2-cyclohexylthiazol-4-yl)phenylamino]-6-[(4-pyridyl)methylamino]-3-nitropyridine]",inhibition at 1 µM,[1],67%
same,Cell viability (%) Calvarial cell,[4],99%
"CC(C)CNc1ccc([N+](=O)[O-])c(Nc2ccc(N3CCOCC3)c(F)c2)n1 [Compound 193, 2-[(3-fluoro-4-morpholino)phenylamino]-6-(isobutylamino)-3-nitropyridine]",Osteoclastogenesis inhibition (%) 1 μM,[1],81%
same,"ALP activity (1 μM, % of Control) Calvarial cell",[2],114 % of Control
same,Cell viability (%) Calvarial cell,[3],98%
"CC(C)(C)Nc1ccc([N+](=O)[O-])c(Nc2ccc(N3CCOCC3)c(F)c2)n1 [Compound 199, 2-[(3-fluoro-4-morpholino)phenylamino]-6-(t-butylamino)-3-nitropyridine]",Osteoclastogenesis inhibition (%) 1 μM,[1],67%
same,"ALP activity (1 μM, % of Control) Calvarial cell",[2],118 % of Control
same,Cell viability (%) Calvarial cell,[3],118%
"O=[N+]([O-])c1ccc(N2CCNCC2)nc1Nc1ccc(N2CCOCC2)c(F)c1 [Compound 201, 2-[(3-fluoro-4-morpholino)phenylamino]-6-(piperazin-1-yl)-3-nitropyridine]",Osteoclastogenesis inhibition (%) 1 μM,[1],86%
same,"ALP activity (1 μM, % of Control) Calvarial cell",[2],118 % of Control
same,Cell viability (%) Calvarial cell,[3],95%
"O=[N+]([O-])c1ccc(N2CCNCC2)nc1Nc1ccc(N2CCSCC2)c(F)c1 [Compound 213, 2-[(3-fluoro-4-thiomorpholino)phenylamino]-6-(piperazin-1-yl)-3-nitropyridine]",Osteoclastogenesis inhibition (%) 1 μM,[1],94%
same,"ALP activity (1 μM, % of Control) Calvarial cell",[2],121 % of Control
same,Cell viability (%) Calvarial cell,[3],95%
"CNc1ccc([N+](=O)[O-])c(Nc2ccc(N3CCNCC3)c(F)c2)n1 [Compound 215, 2-[(3-fluoro-4-piperazino)phenylamino]-6-(methylamino)-3-nitropyridine]",Osteoclastogenesis inhibition (%) 1 μM,[1],91%
same,"ALP activity (1 μM, % of Control) Calvarial cell",[2],125 % of Control
same,Cell viability (%) Calvarial cell,[3],104%
"CC(C)Nc1ccc([N+](=O)[O-])c(Nc2ccc(N3CCNCC3)c(F)c2)n1 [Compound 216, 2-[(3-fluoro-4-piperazino)phenylamino]-6-(isopropylamino)-3-nitropyridine]",Osteoclastogenesis inhibition (%) 1 μM,[1],93%
same,"ALP activity (1 μM, % of Control) Calvarial cell",[2],112 % of Control
same,Cell viability (%) Calvarial cell,[3],92%
"CC(C)CNc1ccc([N+](=O)[O-])c(Nc2ccc(N3CCNCC3)c(F)c2)n1 [Compound 217, 2-[(3-fluoro-4-piperazino)phenylamino]-6-(isobutylamino)-3-nitropyridine]",Osteoclastogenesis inhibition (%) 1 μM,[1],94%
same,"ALP activity (1 μM, % of Control) Calvarial cell",[2],119 % of Control
same,Cell viability (%) Calvarial cell,[3],92%
"CNc1ccc([N+](=O)[O-])c(Nc2ccc(N3CCCCC3)c(F)c2)n1 [Compound 223, 2-[(3-fluoro-4-piperidino)phenylamino]-6-(methylamino)-3-nitropyridine]",Osteoclastogenesis inhibition (%) 1 μM,[1],82%
same,"ALP activity (1 μM, % of Control) Calvarial cell",[2],247 % of Control
same,Cell viability (%) Calvarial cell,[3],100%
"CC(C)CNc1ccc([N+](=O)[O-])c(Nc2ccc(N3CCCCC3)c(F)c2)n1 [Compound 225, 2-[(3-fluoro-4-piperidino)phenylamino]-6-(isobutylamino)-3-nitropyridine]",Osteoclastogenesis inhibition (%) 1 μM,[1],60%
same,"ALP activity (1 μM, % of Control) Calvarial cell",[2],150 % of Control
same,Cell viability (%) Calvarial cell,[3],90%
"CC1=NCCN1c1ccc([N+](=O)[O-])c(Nc2ccc(N3CCCCC3)c(F)c2)n1 [Compound 227, 2-[(3-fluoro-4-piperidino)phenylamino]-6-[(2-methyl-4,5-dihydro)imidazol-1-yl]-3-nitropyridine]",Osteoclastogenesis inhibition (%) 1 μM,[1],65%
same,"ALP activity (1 μM, % of Control) Calvarial cell",[2],122 % of Control
same,Cell viability (%) Calvarial cell,[3],103%
"O=[N+]([O-])c1ccc(NCc2cccnc2)nc1Nc1ccc(N2CCCCC2)c(F)c1 [Compound 229, 2-[(3-fluoro-4-piperidino)phenylamino]-6-[(3-pyridyl)methylamino]-3-nitropyridine]",Osteoclastogenesis inhibition (%) 1 μM,[1],97%
same,"ALP activity (1 μM, % of Control) Calvarial cell",[2],114 % of Control
same,Cell viability (%) Calvarial cell,[3],104% and 125%
"O=[N+]([O-])c1ccc(NCc2ccncc2)nc1Nc1ccc(N2CCCCC2)c(F)c1 [Compound 230, 2-[(3-fluoro-4-piperidino)phenylamino]-6-[(4-pyridyl)methylamino]-3-nitropyridine]",Osteoclastogenesis inhibition (%) 1 μM,[1],93%
same,"ALP activity (1 μM, % of Control) Calvarial cell",[2],120 % of Control
same,Cell viability (%) Calvarial cell,[3],101%
